Measured values as given in patent US20020137929A1, “1 - (3-heterocyclylphenyl) isothiourea, -isourea, -guanidine and -amidine herbicidal agents” (Intellectual Property Department, BASF Aktiengesellschaft, priority 1998, published 2002).

Experiments:
[1] = tested on: CASOB (Sicklepod); assay: Postemergence herbicidal evaluation; format: in vivo, Cassia obtusifolia; details: postemergence
In short: (§1)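 Young plants, roughly two weeks from seeding, receive the active ingredient as a sprayed dispersion (acetone/water 50/50, 0.5% TWEEN 20) at 40 psi. Doses span about 0.0156 to 0.500 kg/ha. A visual score from 0 to 9 compares treated with control plants four to five weeks on.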

[2] = tested on: AMBEL (Ragweed, Common); assay: Preemergence herbicidal evaluation; format: in vivo, Ambrosia artemisifolia; details: rated 4-5 weeks after treatment
In short: (§2)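 Scores (0–9) reflect visual comparison with control plants for stand, vigor, malformation, size and chlorosis. Compound was applied to the soil after sowing, before emergence, as an aqueous acetone spray (about 0.0156–0.500 kg/ha), and cups were kept in a greenhouse for 4–5 weeks.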

[3] = tested on: GLXMAW (Soybean, Williams); assay: Preemergence herbicidal evaluation; format: in vivo, Glycine max, (L.) Merr. cv Williams; details: rated 4-5 weeks after treatment
In short: as §2

[4] = tested on: SETVI (Foxtail, Green); assay: Preemergence herbicidal evaluation; format: in vivo, Setaria viridis; details: rated 4-5 weeks after treatment
In short: as §2

[5] = tested on: MOOVA (Monochoria); assay: Preemergence weed control under flooded paddy conditions; format: in vivo, Monochoria vaginalis; details: rated 3-4 weeks after treatment
In short: (§3)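 Ratings on a 0-9 visual scale cover stand, vigor, malformation, size, chlorosis and overall appearance relative to a control, taken three to four weeks post-treatment. Application was into flood water over freshly sown silt loam at roughly 0.0313 to 0.500 kg/ha.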

[6] = tested on: CYPSE (Flatsedge); assay: Postemergence weed control under flooded paddy conditions; format: in vivo, Cyperus serotinus; details: postemergence weeds, rated 3 to 4 weeks after treatment
In short: (§4)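 With weeds 3 to 5 cm tall and rice at the 1.5 to 2.5 leaf stage, containers were flooded and water held 1.5 to 3 cm above soil. Compounds in 50/50 v/v aqueous/acetone went into the flood water at about 0.0313 to 0.500 kg/ha a.i. Effects were visually rated 0–9 against controls after three to four weeks in the greenhouse.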

[7] = tested on: SAGPY (Arrowhead (Pygmaea)); assay: as above; format: in vivo, Sagittaria pygmaea; details: postemergence weeds, rated 3 to 4 weeks after treatment
In short: as §4

[8] = tested on: GALAP (Galium); assay: Postemergence herbicidal evaluation; format: in vivo, Galium aparine; details: postemergence
In short: as §1

[9] = tested on: ORYSAT (Rice, Tebonnet); assay: Preemergence herbicidal evaluation; format: in vivo, Oryza sativa, (L.) Tebonnet; details: rated 4-5 weeks after treatment
In short: as §2

[10] = tested on: ORYSAT (Rice, Tebonnet); assay: Postemergence herbicidal evaluation; format: in vivo, Oryza sativa, (L.) Tebonnet; details: postemergence
In short: as §1

[11] = tested on: CYPIR (Rice Flatsedge); assay: Postemergence weed control under flooded paddy conditions; format: in vivo, Cyperus iria; details: postemergence weeds, rated 3 to 4 weeks after treatment
In short: as §4

[12] = tested on: ZEAMX (Corn, Field); assay: Postemergence herbicidal evaluation; format: in vivo, Zea mays; details: postemergence
In short: as §1

[13] = tested on: CYPSE (Flatsedge); assay: Preemergence weed control under flooded paddy conditions; format: in vivo, Cyperus serotinus; details: rated 3-4 weeks after treatment
In short: as §3

[14] = tested on: CHEAL (Lambsquarters, Common); assay: Postemergence herbicidal evaluation; format: in vivo, Chenopodium album; details: postemergence
In short: as §1

Compound: C#CCOC(=O)CC1SC(=Nc2cc(-n3c(=O)cc(C(F)(F)F)n(C)c3=O)c(F)cc2Cl)N(CC=C)C1=O (stereo not shown) [Compound 67, 2-Propynyl 3-allyl-2-{{2-chloro-5-[3,6-dihydro-3-methyl-2,6-dioxo-4-(trifluoromethyl)-1(2H)-pyrimidinyl]-4-fluorophenyl}imino}-4-oxo-5-thiazolidineacetate]
- CASOB herbicidal rating ([1]; rate 0.0158 kg/ha): 0.0
- CASOB herbicidal rating ([1]; rate 0.0315 kg/ha): 2.0
- CASOB herbicidal rating ([1]; rate 0.0630 kg/ha): 3.0
- Preemergence herbicidal rating AMBEL ([2]; rate 0.0156 kg/ha): 0.0
- Preemergence herbicidal rating AMBEL ([2]; rate 0.0313 kg/ha): 0.0
- Preemergence herbicidal rating AMBEL ([2]; rate 0.0625 kg/ha): 3.0
- Preemergence herbicidal rating AMBEL ([2]; rate 0.1250 kg/ha): 7.0
- Preemergence herbicidal rating AMBEL ([2]; rate 0.2500 kg/ha): 7.0
- Preemergence herbicidal rating GLXMAW ([3]; rate 0.0156 kg/ha): 0.0
- Preemergence herbicidal rating GLXMAW ([3]; rate 0.0313 kg/ha): 1.0
- Preemergence herbicidal rating GLXMAW ([3]; rate 0.0625 kg/ha): 2.0
- Preemergence herbicidal rating GLXMAW ([3]; rate 0.1250 kg/ha): 2.0
- Preemergence herbicidal rating GLXMAW ([3]; rate 0.2500 kg/ha): 2.0
- Preemergence herbicidal rating SETVI ([4]; rate 0.0156 kg/ha): 0.0
- Preemergence herbicidal rating SETVI ([4]; rate 0.0313 kg/ha): 0.0
- Preemergence herbicidal rating SETVI ([4]; rate 0.0625 kg/ha): 0.0
- Preemergence herbicidal rating SETVI ([4]; rate 0.1250 kg/ha): 6.0
- Preemergence herbicidal rating SETVI ([4]; rate 0.2500 kg/ha): 7.0
- MOOVA herbicidal effect rating ([5]; 0.0313 kg/ha): 9.0
- MOOVA herbicidal effect rating ([5]; 0.0625 kg/ha): 9.0
- MOOVA herbicidal effect rating ([5]; 0.1250 kg/ha): 9.0
- MOOVA herbicidal effect rating ([5]; 0.2500 kg/ha): 9.0
- Herbicidal rating CYPSE ([6]; Rate 0.0313 kg/ha): 0.0
- Herbicidal rating CYPSE ([6]; Rate 0.0625 kg/ha): 3.0
- Herbicidal rating CYPSE ([6]; Rate 0.1250 kg/ha): 3.0
- Herbicidal rating CYPSE ([6]; Rate 0.2500 kg/ha): 3.0
- Herbicidal rating SAGPY ([7]; Rate 0.0313 kg/ha): 0.0
- Herbicidal rating SAGPY ([7]; Rate 0.0625 kg/ha): 4.0
- Herbicidal rating SAGPY ([7]; Rate 0.1250 kg/ha): 4.0
- Herbicidal rating SAGPY ([7]; Rate 0.2500 kg/ha): 6.0
- GALAP herbicidal rating ([8]; rate 0.0158 kg/ha): 2.9
- GALAP herbicidal rating ([8]; rate 0.0315 kg/ha): 6.0
- GALAP herbicidal rating ([8]; rate 0.0630 kg/ha): 5.0
- Preemergence herbicidal rating ORYSAT ([9]; rate 0.0156 kg/ha): 0.0
- Preemergence herbicidal rating ORYSAT ([9]; rate 0.0313 kg/ha): 0.0
- Preemergence herbicidal rating ORYSAT ([9]; rate 0.0625 kg/ha): 0.0
- Preemergence herbicidal rating ORYSAT ([9]; rate 0.1250 kg/ha): 1.0
- Preemergence herbicidal rating ORYSAT ([9]; rate 0.2500 kg/ha): 1.0
- ORYSAT herbicidal rating ([10]; rate 0.0158 kg/ha): 4.0
- ORYSAT herbicidal rating ([10]; rate 0.0315 kg/ha): 4.5
- ORYSAT herbicidal rating ([10]; rate 0.0630 kg/ha): 5.0
- Herbicidal rating CYPIR ([11]; Rate 0.0313 kg/ha): 5.0
- Herbicidal rating CYPIR ([11]; Rate 0.0625 kg/ha): 5.0
- Herbicidal rating CYPIR ([11]; Rate 0.1250 kg/ha): 5.0
- Herbicidal rating CYPIR ([11]; Rate 0.2500 kg/ha): 8.0
- ZEAMX herbicidal rating ([12]; rate 0.0158 kg/ha): 7.5
- ZEAMX herbicidal rating ([12]; rate 0.0315 kg/ha): 8.0
- ZEAMX herbicidal rating ([12]; rate 0.0630 kg/ha): 8.0
- CYPSE herbicidal effect rating ([13]; 0.0313 kg/ha): 0.0
- CYPSE herbicidal effect rating ([13]; 0.0625 kg/ha): 3.0
- CYPSE herbicidal effect rating ([13]; 0.1250 kg/ha): 3.0
- CYPSE herbicidal effect rating ([13]; 0.2500 kg/ha): 3.0
- CHEAL herbicidal rating ([14]; rate 0.0158 kg/ha): 4.0
- CHEAL herbicidal rating ([14]; rate 0.0315 kg/ha): 6.0
- CHEAL herbicidal rating ([14]; rate 0.0630 kg/ha): 9.0
